Source: article PMC10145360, “Antiplatelet Aggregation Properties of Cirsilineol: A Novel Inhibitor of Blood Coagulation Factor Xa” (Pharmaceuticals, 2023)

Columns and labels:
[1] = tested on: myristoylated alanine-rich C kinase substrate (MARCKS) in human platelets; experiment: MARCKS phosphorylation (PKC activation), western blotting; format: cell-based; settings: CSL 10 or 20 μM; ADP 10 μM or U46619 6 μM
Method: (§1) Figure 6 Effects of CSL on activation of protein kinase CPKC activation and mobilization of intracellular calcium. (A) Rinsed platelets were incubated with DMSO or CSL (10 or 20 μM) for 10 min at 37 °C, and stimulation of ADP (10 μM, left) or U46619 (6 μM, right) was given for 1 min. The phosphorylation level of MARCKS in the platelets was determined with western blotting. Representative images from each group are shown (n = 3). Densitometric intensities of each signaling pathway component normalized to β-actin or total protein. (B,C) Human platelets preloaded with Fura-2 were incubated with DMSO (D) or CSL with extracellular Ca^2+ (1 mM) for 10 min at 37 °C, and ADP ((B) 10 μM) or U46619 ((C) 6 μM) stimulation was given to induce an increase in [Ca^2+]i. Data are shown as mean values ± SD of five independent experiments. * p < 0.05 vs. ADP (A,B) or U46619 (A,C) alone. D = 0.2% DMSO, used as the vehicle control.
SDS-PAGE was used to isolate identical amounts of protein from the […] extracts, and the protein was then electrotransferred onto an immobilon membrane (Millipore, Billerica, MA, USA). The membranes underwent blocking, anti-phospho-MARCKS (Santa Cruz, CA, USA) incubation for 1.5 h at room temperature, HRP-conjugated secondary antibody incubation, and ECL detection. […]

human platelets = experiment: Intracellular Ca2+ mobilization (Fura-2); format: cell-based; settings: ADP 10 μM or U46619 6 μM; extracellular Ca2+ 1 mM
Method: as §1
The amount of intracellular Ca^2+ ([Ca^2+]i) of platelets was measured as previously described. […] Grynkiewicz et al. proposed an equation for calculating the [Ca^2+]i by measuring the intensity of fluorescence signals (excitation/emission wavelengths: 339/500 nm) obtained from the platelets.

## COc1cc(-c2cc(=O)c3c(O)c(OC)c(OC)cc3o2)ccc1O [CSL, 4,5-dihydroxy-3,6,7-trimethoxyflavone]
[1]
  MARCKS phosphorylation in response to ADP and U46619: prevented MARCKS from becoming phosphorylated
Human platelets
  ADP- and U46619-induced elevations in [Ca2+]i: inhibited
